# Earlier results, collected in patent US9364497B2, “Treatment of cognitive disorders” (Isis Innovation Limited, priority 2010, dated 2016).
# Tests used:
# [1] = test system: normal participants with baseline tHcy levels >13 μmol/L; conditions: 0.8 mg/d for three years
# [2] = test system: subjects with mild cognitive impairment; conditions: MCI
# [3] = test system: mild cognitive impairment; conditions: MCI; over four years
smiles,measurement,setting,value
Nc1nc2ncc(CNc3ccc(C(=O)N[C@@H](CCC(=O)O)C(=O)O)cc3)nc2c(=O)[nH]1 [folic acid],effect on cognitive tests,[1],beneficial effect on several cognitive tests
COc1ccc2c3c1O[C@H]1C[C@@H](O)C=C[C@@]31CCN(C)C2 [galantamine],deaths in treatment groups versus placebo,[2],significantly greater number of deaths
CCN(C)C(=O)Oc1cccc([C@H](C)N(C)C)c1 [rivastigmine],benefit on cognitive function,[3],no significant benefit
same,benefit on the progression rate to Alzheimer's Disease,[3],no significant benefit
